# Values quoted from earlier work in patent publication US9597409B2, “Methods of treating cancer” (Abraxis BioScience, LLC, priority 2010, dated 2017).
# Tested on: patients with locally advanced or metastatic NSCLC
# Settings: single agents commonly used to treat NSCLC
smiles,measurement,value
CCC1=C[C@@H]2CN(C1)Cc1c([nH]c3ccccc13)[C@@](C(=O)OC)(c1cc3c(cc1OC)N(C)[C@H]1[C@@](O)(C(=O)OC)[C@H](OC(C)=O)[C@]4(CC)C=CCN5CC[C@]31[C@@H]54)C2 [vinorelbine],response rate (RR),29.4%
